# From article PMC11945486, “TAS1R2/TAS1R3 Single-Nucleotide Polymorphisms Affect Sweet Taste Receptor Activation by Sweeteners: The SWEET Project” (Nutrients, 2025)
# No end group written: not given here.
# B1: thaumatin (protein)
# chain: ATFEIVNRCSYTVWAAASKGDAALDAGGRQLNSGESWTINVEPGTKGGKIWARTDCYFDDSGSGICKTGDCGGLLRCKRFGRPPTTLAEFSLNQYGKDYIDISNIKGFNVPMDFSPTTRGCRGVRCAADIVGQCPAKLKAPGGGCNDACTVFQTSEYCCTTGKCGPTEYSRFFKRLCPDAFSYVLDKPTTVTCPGSSNYRVTFCPTA
# modifications: Eight disulfides
# notes: sweet-tasting plant protein, E957
# Molecular target: T1, human TAS1R2-R317P/TAS1R3-WT (Homo sapiens, UniProt Q7RTX0+Q8TE23, R317P)
# T1 construct: expressed in transfected cells; host or cells: HEK293T-Gα16gust44
# T1 sequence (Q8TE23 20-839 R317P): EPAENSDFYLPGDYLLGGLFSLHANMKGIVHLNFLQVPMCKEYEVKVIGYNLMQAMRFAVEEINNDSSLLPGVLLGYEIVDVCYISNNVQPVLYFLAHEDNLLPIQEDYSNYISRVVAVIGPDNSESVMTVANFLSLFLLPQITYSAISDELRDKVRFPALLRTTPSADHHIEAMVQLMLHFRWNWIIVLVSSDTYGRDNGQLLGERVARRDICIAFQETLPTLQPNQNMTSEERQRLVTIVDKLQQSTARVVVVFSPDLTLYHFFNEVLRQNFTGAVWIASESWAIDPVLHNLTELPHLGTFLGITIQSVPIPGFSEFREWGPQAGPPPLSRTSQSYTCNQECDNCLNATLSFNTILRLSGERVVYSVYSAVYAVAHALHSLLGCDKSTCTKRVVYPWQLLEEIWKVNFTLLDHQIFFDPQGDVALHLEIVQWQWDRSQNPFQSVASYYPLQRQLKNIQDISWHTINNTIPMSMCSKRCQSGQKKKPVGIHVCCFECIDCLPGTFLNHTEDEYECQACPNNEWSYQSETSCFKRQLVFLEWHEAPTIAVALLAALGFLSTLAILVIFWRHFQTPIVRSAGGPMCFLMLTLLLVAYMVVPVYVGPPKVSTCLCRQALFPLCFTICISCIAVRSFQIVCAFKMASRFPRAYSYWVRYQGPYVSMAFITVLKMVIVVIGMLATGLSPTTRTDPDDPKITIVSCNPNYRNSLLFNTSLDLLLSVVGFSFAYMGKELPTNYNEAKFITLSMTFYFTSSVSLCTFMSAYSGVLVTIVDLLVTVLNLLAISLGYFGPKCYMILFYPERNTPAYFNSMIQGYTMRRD
# T1 sequence (Q7RTX0 21-852): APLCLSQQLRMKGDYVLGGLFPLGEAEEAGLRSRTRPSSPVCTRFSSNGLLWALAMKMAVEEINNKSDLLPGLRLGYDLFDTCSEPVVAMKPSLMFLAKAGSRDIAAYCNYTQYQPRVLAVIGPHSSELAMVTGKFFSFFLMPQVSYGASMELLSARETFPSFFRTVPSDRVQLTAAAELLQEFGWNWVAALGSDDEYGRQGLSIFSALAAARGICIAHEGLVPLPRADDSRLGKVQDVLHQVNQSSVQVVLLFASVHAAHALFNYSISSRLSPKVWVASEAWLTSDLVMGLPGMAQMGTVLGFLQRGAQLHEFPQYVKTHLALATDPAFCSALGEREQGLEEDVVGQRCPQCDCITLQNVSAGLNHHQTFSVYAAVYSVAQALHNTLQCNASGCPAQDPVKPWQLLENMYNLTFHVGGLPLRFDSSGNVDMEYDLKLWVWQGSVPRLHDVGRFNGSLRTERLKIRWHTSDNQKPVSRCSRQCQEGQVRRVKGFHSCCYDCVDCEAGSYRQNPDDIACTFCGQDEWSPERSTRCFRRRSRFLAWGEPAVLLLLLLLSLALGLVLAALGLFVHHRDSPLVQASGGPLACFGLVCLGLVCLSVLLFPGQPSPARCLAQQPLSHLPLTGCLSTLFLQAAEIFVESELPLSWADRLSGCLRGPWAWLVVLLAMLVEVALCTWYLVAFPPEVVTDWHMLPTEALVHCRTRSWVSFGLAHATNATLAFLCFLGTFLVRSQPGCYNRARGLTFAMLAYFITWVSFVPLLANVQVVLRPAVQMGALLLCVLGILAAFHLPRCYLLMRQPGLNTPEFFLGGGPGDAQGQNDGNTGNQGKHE
# Assay: Calcium mobilisation assay, TAS1R2 variant R317P with TAS1R3-WT
# Format: cell-based
# Details: for Max ΔF/F0: maximal signal amplitude
# Description: The coding sequences for TAS1R2 and TAS1R3 were commercially synthesised, and the human codon was optimised for expression in human cells. The coding sequences of human TAS1R2 and TAS1R3 were subcloned and inserted into the mammalian expression vectors pcDNA6/myc-HisA and pcDNA4/myc-HisA (Invitrogen; Thermo Fisher Scientific; Illkirch, France) between the EcoRI and NotI restriction sites, generating the plasmids pcDNA6-TAS1R2 and pcDNA4-TAS1R3, respectively. To increase protein expression in mammalian cells, an upstream start codon was used, which was a sequence called MAX, corresponding to the QBI SP163 element also described in pcDNA4-HisMax (Invitrogen; Thermo Fisher Scientific; Illkirch, France). To measure the expression level of the receptor by immunohistochemistry, we used the FLAG sequence ([…]) in the C-terminal position, which encodes the FLAG tag epitope. SNP variants of TAS1R2 and TAS1R3 were constructed based on […], respectively, using site-directed mutagenesis (Genewiz; Leipzig, Germany).
# The HEK293T cells were kindly provided by Jay P. Slack (Givaudan Flavors Corporation; Cincinnati, OH, USA). HEK293T cells stably transfected with Gα16gust44 [43, 67] were seeded in poly-D-lysine-coated clear-bottom black 96-well plates (0.35 × 10^5 cells/well) in high-glucose DMEM supplemented with 2 mM GlutaMAX, 10% dialysed foetal bovine serum with penicillin/streptomycin and G418 (400 μg/mL) at 37 °C and 6.3% CO2 in a humidified atmosphere as previously reported. […] As a negative control, HEK293T cells were mock-transfected with the empty expression vector. After a further 24 h of incubation, the HEK293T cells were washed with C1 buffer (130 mM NaCl, 5 mM KCl, 10 mM HEPES pH 7.4 and 2 mM CaCl2). The 96-well plates containing the cells were then stimulated with sweet-tasting compounds. […] Different concentration ranges were tested depending on the sweet compound injected. The Ca^2+ changes were expressed as fractional changes in fluorescent light intensity: ΔF/F = (F − F0)/F0, where F was the fluorescent light intensity at each point, and F0 was the value of emitted fluorescent light prior to stimulus application. To calculate dose–response relationships, the changes in fluorescence upon stimulus application were averaged, mock-subtracted and baseline-corrected. The dose–response data obtained were adjusted using a 4-parameter logistic equation. The half-maximal effective concentrations (EC50 values) and maximal signal amplitudes were calculated using SigmaPlot software (version 15.0) (Systat Software; San Jose, CA, USA).
# For in vitro calcium mobilisation assay performed on hTAS1R2-SNPs, hTAS1R3-SNPs and mTAS1R3-I60T, 6 to 7 concentrations were tested for each sweet compound, plus buffer alone. All concentration–receptor combinations were measured in duplicate, and each experiment was repeated at least 4 times (8 wells/concentration). Results were expressed for each concentration as ΔF/F mean ± SEM and represented as dose–response curves.
Molecule,EC50 [µM],R1 = Variant EC50/WT EC50,Max ΔF/F0
OC[C@H]1O[C@H](O[C@]2(CCl)O[C@H](CCl)[C@@H](O)[C@@H]2O)[C@H](O)[C@@H](O)[C@H]1Cl [Sucralose],98 ± 19,1.1,0.76 ± 0.06
"O=S(=O)(O)NC1CCCCC1 [Cyclamate, cyclamate]",2860 ± 62,,
"C=C(C)[C@@H]1CC=C(/C=N/O)CC1 [Perillartine, perillartine]",35.2 ± 2.2,2.0,1.16 ± 0.03
"C=C1C[C@@]23CC[C@H]4[C@@](C)(CCC[C@@]4(C)C(=O)O[C@@H]4O[C@H](CO)[C@@H](O)[C@H](O[C@@H]5O[C@H](CO)[C@@H](O)[C@H](O)[C@H]5O)[C@H]4O[C@@H]4O[C@H](CO)[C@@H](O)[C@H](O)[C@H]4O)[C@@H]2CC[C@]1(O[C@@H]1O[C@H](CO)[C@@H](O)[C@H](O[C@@H]2O[C@H](CO)[C@@H](O)[C@H](O)[C@H]2O)[C@H]1O[C@@H]1O[C@H](CO)[C@@H](O)[C@H](O)[C@H]1O)C3 [Rebaudioside M, rebaudioside M]",26.9 ± 0.5,1.6,1.19 ± 0.01
"COc1ccc(CCC(=O)c2c(O)cc(O[C@@H]3O[C@H](CO)[C@@H](O)[C@H](O)[C@H]3O[C@@H]3O[C@@H](C)[C@H](O)[C@@H](O)[C@H]3O)cc2O)cc1O [NHDC, neohesperidin dihydrochalcone]",171 ± 26.2,2.2,0.58 ± 0.04
thaumatin,,2.5,0.42 ± 0.01
"CC1=CC(=O)NS(=O)(=O)O1 [Acesulfame K, acesulfame K]",685 ± 41,1.0,0.42 ± 0.01
"brazzein (QDKCKKVYENYPVSKCQLANQCNYDCKLDKHARSGECFYDEKRNLQCICDYCEY; ends and bridges not checked; cysteine pairing not given here; UniProt P56552 1-54, looked up) [sweet-tasting protein obtained by recombinant production using the yeast Pichia pastoris]",,2.5,0.91 ± 0.02
"C[C@H](CC[C@@H](O[C@@H]1O[C@H](CO[C@@H]2O[C@H](CO)[C@@H](O)[C@H](O)[C@H]2O)[C@@H](O)[C@H](O)[C@H]1O[C@@H]1O[C@H](CO)[C@@H](O)[C@H](O)[C@H]1O)C(C)(C)O)[C@H]1CC[C@@]2(C)[C@@H]3CC=C4[C@@H](CC[C@H](O[C@@H]5O[C@H](CO[C@@H]6O[C@H](CO)[C@@H](O)[C@H](O)[C@H]6O)[C@@H](O)[C@H](O)[C@H]5O)C4(C)C)[C@]3(C)[C@H](O)C[C@]12C [Mogroside V, mogroside V]",27.9 ± 2.5,1.6,1.51 ± 0.05
COC(=O)[C@H](Cc1ccccc1)NC(=O)[C@H](CC(=O)O)NCCC(C)(C)C [Neotame],0.86 ± 0.16,1.0,0.63 ± 0.04
B1,18.9 ± 0.7,,
